Drawing on PubChem BioAssay AID328 (DTP/NCI, 2004), this text covers T/C for 21 compounds.

Several values for one entry are separate records, joined by “and”; a condition that tells them apart may be missing. Equal entries are not always repeated. Toxic doses and inconclusive results are not listed.

The test deals with BDF1 mice, P388 leukemia ip, median survival T/C. The experiment in a line: NCI In Vivo Anticancer Drug Screen. Data for tumor model P388 Leukemia (intraperitoneal) in B6D2F1 (BDF1) mice. Conditions: endpoint: median survival time, higher = longer survival. The gist of the method: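 In tumour-bearing mice, survival after compound treatment is set against the vehicle group and given as a quotient.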

Setting [1] is: dose: 100.0 mg/kg/injection, schedule: Q04DX003 (ip), vehicle: Klucel (hydroxypropylcellulose) (HPC).
Where [2] appears, read: dose: 200.0 mg/kg/injection, schedule: Q04DX003 (ip), vehicle: Klucel (hydroxypropylcellulose) (HPC).
Setting [3] is: dose: 400.0 mg/kg/injection, schedule: Q04DX003 (ip), vehicle: Klucel (hydroxypropylcellulose) (HPC).
Where [4] appears, read: dose: 100.0 mg/kg/injection, schedule: Q01DX009 (ip), vehicle: saline with Tween-80.
The mark [5] stands for this setting: dose: 100.0 mg/kg/injection, schedule: Q04DX003 (ip), vehicle: saline with Tween-80.
[6] abbreviates: dose: 200.0 mg/kg/injection, schedule: Q01DX009 (ip), vehicle: saline with Tween-80.
Setting [7] is: dose: 200.0 mg/kg/injection, schedule: Q04DX003 (ip), vehicle: saline with Tween-80.
Where [8] appears, read: dose: 12.5 mg/kg/injection, schedule: Q01DX009 (ip), vehicle: saline with Tween-80.
Setting [9] is: dose: 25.0 mg/kg/injection, schedule: Q01DX009 (ip), vehicle: saline with Tween-80.
Where [10] appears, read: dose: 50.0 mg/kg/injection, schedule: Q01DX009 (ip), vehicle: saline with Tween-80.

On to `CCN(CC)C1=C(N(CC)CC)C(N(CC)CC)=C(N(CC)CC)C1=O.[C-]#[O+].[C-]#[O+].[C-]#[O+].[Fe]`, for which the T/C is 101 % of control under setting [1], 91 % of control under setting [2] and 115 % of control under setting [3].

In the case of `O=C1c2ccccc2C(=O)c2c(O)c(NCCCN3CCOCC3)cc(O)c21`, the T/C by setting is: (dose: 50.0 mg/kg/injection, schedule: Q01DX005 (ip), vehicle: saline with Tween-80) 99 % of control; (dose: 100.0 mg/kg/injection, schedule: Q01DX005 (ip), vehicle: saline with Tween-80) 94 % of control; (dose: 200.0 mg/kg/injection, schedule: Q01DX005 (ip), vehicle: saline with Tween-80) 94 % of control.

Consider `N=c1c(C(N)=O)cnc2n1CCCCC2`, for which the T/C (dose: 100.0 mg/kg/injection, schedule: Q04DX003 (ip), vehicle: saline) was 109 % of control.

Consider `O=C1CC(c2ccc(Cl)cc2)NC(c2ccc(Cl)cc2)C1` (stereo not given), for which the T/C is, setting by setting: under setting [4], 101 % of control; under setting [5], 107 % of control; (dose: 150.0 mg/kg/injection, schedule: Q01DX009 (ip), vehicle: saline with Tween-80) 111 % of control; under setting [6], 116 % of control; under setting [7], 100 % of control; (dose: 400.0 mg/kg/injection, schedule: Q04DX003 (ip), vehicle: saline with Tween-80) 107 % of control.

For `CCC(C)C(C)(COC(N)=O)COC(N)=O` (stereo not given), the T/C is, setting by setting: (dose: 100.0 mg/kg/injection, schedule: Q01DX009 (ip), vehicle: Klucel (hydroxypropylcellulose) (HPC)) 90 % of control; (dose: 200.0 mg/kg/injection, schedule: Q01DX009 (ip), vehicle: Klucel (hydroxypropylcellulose) (HPC)) 86 % of control; (dose: 400.0 mg/kg/injection, schedule: Q01DX009 (ip), vehicle: Klucel (hydroxypropylcellulose) (HPC)) 95 % of control.

Take `O=c1[nH]c2cc(F)ccc2o1`: the T/C is 100 % of control under setting [1], 95 % of control under setting [2] and 100 % of control under setting [3].

Consider `COc1cc(C=Nc2ccc(-c3nc(Cc4ccccc4)sc3C)cc2)ccc1N(CCCl)CCCl`, for which the T/C is 196 % of control (dose: 3.13 mg/kg/injection, schedule: Q01DX009 (ip), vehicle: Klucel (hydroxypropylcellulose) (HPC)); 206 % of control (dose: 6.25 mg/kg/injection, schedule: Q01DX009 (ip), vehicle: Klucel (hydroxypropylcellulose) (HPC)); 221 % of control (dose: 12.5 mg/kg/injection, schedule: Q01DX009 (ip), vehicle: Klucel (hydroxypropylcellulose) (HPC)); 194 % of control and 198 % of control (dose: 25.0 mg/kg/injection, schedule: Q01DX009 (ip), vehicle: Klucel (hydroxypropylcellulose) (HPC)); 108 % of control (dose: 50.0 mg/kg/injection, schedule: Q01DX009 (ip), vehicle: Klucel (hydroxypropylcellulose) (HPC)).

Turning to `COc1cc(/C=N/Nc2ccc([N+](=O)[O-])cc2)cc(OC)c1OC`, the T/C runs as follows: (dose: 50.0 mg/kg/injection, schedule: Q04DX003 (ip), vehicle: saline with Tween-80) 100 % of control; under setting [4], 95 % of control; under setting [5], 95 % of control; under setting [6], 95 % of control; under setting [7], 105 % of control; (dose: 400.0 mg/kg/injection, schedule: Q01DX009 (ip), vehicle: saline with Tween-80) 100 % of control.

Regarding `CC(C)(C)OC(=O)NN=C1CCC(C(C)(C)C)CC1` (stereo not given), the T/C reads like this: (dose: 83.75 mg/kg/injection, schedule: Q01DX001 (ip), vehicle: Klucel (hydroxypropylcellulose) (HPC)) 95 % of control; under setting [4], 109 % of control; (dose: 150.0 mg/kg/injection, schedule: Q04DX003 (ip), vehicle: Klucel (hydroxypropylcellulose) (HPC)) 100 % of control; (dose: 167.5 mg/kg/injection, schedule: Q01DX001 (ip), vehicle: Klucel (hydroxypropylcellulose) (HPC)) 100 % of control; (dose: 225.0 mg/kg/injection, schedule: Q04DX003 (ip), vehicle: Klucel (hydroxypropylcellulose) (HPC)) 100 % of control; (dose: 335.0 mg/kg/injection, schedule: Q01DX001 (ip), vehicle: Klucel (hydroxypropylcellulose) (HPC)) 95 % of control. For the setting “dose: 335.0 mg/kg/injection, schedule: Q04DX003 (ip), vehicle: Klucel (hydroxypropylcellulose) (HPC)”, the T/C was 90 % of control.

As to `CC1CC2C(CC1O)C2(C)C` (stereo not given), the T/C is 100 % of control under setting [8]; 95 % of control under setting [9]; 109 % of control under setting [10]; 111 % of control (dose: 100.0 mg/kg/injection, schedule: Q04DX003 (ip), vehicle: saline sonified); 111 % of control (dose: 200.0 mg/kg/injection, schedule: Q04DX003 (ip), vehicle: saline sonified); 100 % of control (dose: 400.0 mg/kg/injection, schedule: Q04DX003 (ip), vehicle: saline sonified).

Take `C/C=C/CCCCCCCC`: the T/C (dose: 100.0 mg/kg/injection, schedule: Q01DX001 (ip), vehicle: saline with Tween-80) was 104 % of control; the T/C (dose: 200.0 mg/kg/injection, schedule: Q01DX001 (ip), vehicle: saline with Tween-80) is 104 % of control; the T/C (dose: 400.0 mg/kg/injection, schedule: Q01DX001 (ip), vehicle: saline with Tween-80) is 119 % of control.

With `O=[N+]([O-])c1ccc(SCc2ccccc2)c2c1no[n+]2[O-]`, the T/C reads like this: (dose: 15.0 mg/kg/injection, schedule: Q01DX009 (ip), vehicle: saline with Tween-80) 105 % of control; (dose: 30.0 mg/kg/injection, schedule: Q01DX009 (ip), vehicle: saline with Tween-80) 96 % of control; (dose: 60.0 mg/kg/injection, schedule: Q01DX009 (ip), vehicle: saline with Tween-80) 93 % of control.

With `CCCCN(CCCC)CC(O)c1cc(-c2ccc(Cl)c(Cl)c2)cc2cc(Cl)ccc12` (stereo not given), the T/C runs as follows: under setting [8], 99 % of control; under setting [9], 99 % of control; under setting [10], 92 % of control and 97 % of control.

For `[NH-]C(CO)C(=O)O.[NH-]C(CO)C(=O)O.[Pd+2]` (stereo not given), the T/C (dose: 12.5 mg/kg/injection, schedule: Q01DX009 (ip), vehicle: water) is 106 % of control.

With `O=C1C2CCCCC1C(N1CCCC1)CC2` (stereo not given), the T/C is, setting by setting: (dose: 100.0 mg/kg/injection, schedule: Q04DX003 (sc), vehicle: olive oil, sesame oil, peanut oil) 100 % of control; (dose: 200.0 mg/kg/injection, schedule: Q04DX003 (sc), vehicle: olive oil, sesame oil, peanut oil) 86 % of control; (dose: 400.0 mg/kg/injection, schedule: Q04DX003 (sc), vehicle: olive oil, sesame oil, peanut oil) 100 % of control.

`Nc1nc(N)c2cc(CNc3ccc(C(=O)NC(C(=O)O)C(=O)O)cc3)ccc2n1`: the T/C (dose: 0.15 mg/kg/injection, schedule: Q01DX009 (ip), vehicle: saline) is 163 % of control.

Turning to `O=C1OCC/C1=C1/Nc2ccccc2NC1=O`, the T/C under setting [8] was 105 % of control, the T/C under setting [9] is 100 % of control and the T/C under setting [10] is 96 % of control.

In the case of `O=NN(CCCl)C(=O)Nc1ccccc1`, the T/C runs as follows: (dose: 8.0 mg/kg/injection, schedule: Q04DX003 (ip), vehicle: saline with Tween-80) 233 % of control; (dose: 8.25 mg/kg/injection, schedule: Q04DX003 (ip), vehicle: saline with Tween-80) 231 % of control; (dose: 12.0 mg/kg/injection, schedule: Q04DX003 (ip), vehicle: saline with Tween-80) 311 % of control; (dose: 12.5 mg/kg/injection, schedule: Q04DX003 (ip), vehicle: saline with Tween-80) 272 % of control; (dose: 18.0 mg/kg/injection, schedule: Q04DX003 (ip), vehicle: saline with Tween-80) 261 % of control; (dose: 18.75 mg/kg/injection, schedule: Q04DX003 (ip), vehicle: saline with Tween-80) 104 % of control.

For the compound `O=C1C=CC(=O)C23CC=CCC12C(=O)c1ccccc1C3=O` (stereo not given), the T/C reads like this: (dose: 6.25 mg/kg/injection, schedule: Q04DX003 (ip), vehicle: water) 107 % of control; (dose: 12.5 mg/kg/injection, schedule: Q04DX003 (ip), vehicle: water) 107 % of control; (dose: 25.0 mg/kg/injection, schedule: Q04DX003 (ip), vehicle: water) 92 % of control.

For the compound `COC(=O)CCCC1=NC2=CC=CC3=NC(C)=NC(=N1)N23`, the T/C under setting [9] is 110 % of control and the T/C under setting [4] is 99 % of control.

For `CCNC(C)(C)C(SSS)c1ccco1` (stereo not given), the T/C runs as follows: (dose: 100.0 mg/kg/injection, schedule: Q04DX003 (ip), vehicle: gum acacia) 100 % of control and 116 % of control; (dose: 134.0 mg/kg/injection, schedule: Q01DX009 (ip), vehicle: gum acacia) 100 % of control; (dose: 200.0 mg/kg/injection, schedule: Q04DX003 (ip), vehicle: gum acacia) 109 % of control; (dose: 400.0 mg/kg/injection, schedule: Q04DX003 (ip), vehicle: gum acacia) 91 % of control and 122 % of control.
